What was measured:
CD4+ T-cell (CEM) = experiment: Cytotoxicity: inhibition of CEM cell proliferation; format: cell-based, human; conditions: 50% cytostatic concentration, mean±s.d., n=2–3
HIV-2(ROD) [1] = experiment: Anti-HIV activity assay, HIV-2 in wild-type CEM/0 cells; format: cell-based; conditions: read-out: EC50 CEM HIV-2
Description: (§1) Inhibition of HIV-1(IIIB)- and HIV-2(ROD)-induced cytopathicity in wild-type CEM/0 and TK-deficient CEM/TK^− cell cultures was measured in microtitre 96-well plates containing ∼3 × 10^5 CEM cells ml^−1 infected with 100 CCID50 of HIV per millilitre and containing appropriate dilutions of the test compounds. After 4−5 days of incubation at 37 °C in a CO2-controlled humidified atmosphere, CEM giant (syncytium) cell formation was examined microscopically. The EC50 (50% effective concentration) was defined as the compound concentration required to inhibit HIV-induced giant cell formation by 50%.

HIV-2(ROD) [2] = experiment: Anti-HIV activity assay, HIV-2 in TK-deficient CEM/TK− cells; format: cell-based; conditions: thymidine kinase-deficient CEM/TK− cells, mean±s.d., n=2–3
Description: as §1

HIV RT = target: T1, HIV RT (Human immunodeficiency virus type 1 group M subtype B, UniProt P03366); experiment: Primer extension assay with HIV reverse transcriptase using PLE hydrolysate; format: biochemical; conditions: hydrolysate after complete consumption of prodrug and intermediate; 2.5 μM, 37 °C, 10 min
T1 construct: Primer extension assays with HIV reverse transcriptase; purchased Roboklon
Description: To confirm the prodrug concept and thus the direct successful release of the biologically active triphosphate metabolite, the prodrug 3e was exposed to PLE and the hydrolysis monitored with RP-18-HPLC. After complete consumption of 3e as well as its intermediate 4e the solvents were removed. For the template/primer extension assay (Fig. 4a), HIV RT was incubated with the PLE hydrolysate as such (T*) or with the PLE hydrolysate in the additional presence of dCTP (T*, C), or dCTP+dGTP (T*, C, G) or all natural 2′-deoxynucleotides (N*). […] In addition, TriPPPro-TTP 3r was synthesized (Fig. 5) and also investigated in the same way. […] The primer could be fully extended till 30 nt when T* was added in the presence of dCTP and dGTP, as also the N* and N samples could.
The used polymerase HIV RT was obtained from Roboklon. The primer and template were purchased from Life Technologies.
The primer extension assays were performed under the following conditions:
The primer was labelled using [γ^32P]-ATP according to standard techniques. After 5-min incubation at 95 °C in 20 mM Tris-HCl (pH 7.6) and 50 mM NaCl, the hybridization/annealing of the primer to the template strand was achieved by a cooling phase from 95 to 20 °C over 3 h. […]

pig liver esterase (PLE) = experiment: Enzymatic hydrolysis with pig liver esterase (PLE) in PBS; format: in vitro ADME; conditions: PLE in PBS pH 7.3, 37 °C; for t1/2(1) PLE: removal of first masking unit (half-lives of 3); for t1/2(2) PLE: second hydrolysis step, half-lives of intermediate 4
Description: Furthermore, 140 μl of the 6.0 mM solution was diluted with 105 μl DMSO-d6 and 700 μl 50 mM PBS buffer. The reaction was started by addition of 52.5 μl of PLE in PBS buffer (3 mg ml^−1) and the mixture was incubated at 37 °C in a thermomixer. At different times, aliquots (125 μl) were taken and treated as follows: (a) for 3a–g,l,m and 4a,e the reaction was stopped by addition to 132.5 μl MeOH. […] (b) For 3h,i,k,n and 4j, the sample was directly frozen in liquid nitrogen.

HIV-1(IIIB) = experiment: Anti-HIV activity assay, HIV-1 in wild-type CEM/0 cells; format: cell-based; conditions: HIV-induced giant cell formation, mean±s.d., n=2–3
Description: as §1

[3] = Chemical hydrolysis in PBS, pH 7.3; format: physicochemical; conditions: for t1/2(1) PBS, pH=7.3: removal of first masking unit (half-lives of 3); for t1/2(1) PBS, pH=7.3 / t1/2(2) PBS, pH=7.3: PBS pH 7.3, 37 °C; for t1/2(2) PBS, pH=7.3: second hydrolysis step, half-lives of intermediate 4 to give d4TTP 19
Description: Stock solutions (50 mM in DMSO-d6) of the appropriate compounds were prepared. After dilution of 11 μl with 100 μl Millipore water and 189 μl DMSO-d6 to 1.9 mM hydrolysis solutions the reaction was started by the addition of 300 μl PBS (50 mM, pH 7.3). The solution was incubated at 37 °C in a thermomixer. An initial aliquot (25 μl) was taken directly and analysed by analytical HPLC at 265–266 nm. Further aliquots were taken for monitoring the kinetic hydrolysis. The exponential decay curves (pseudo-first order) based on absolute integral values were calculated with commercially available software (OriginPro 9.0G) and yielded the half-lives t1/2(1) and t1/2(2) of the prodrugs via one determination.

[4] = Enzyme-catalysed hydrolysis in CEM cell extracts; conditions: human CEM cell extract, 37 °C
Description: The hydrolysis mixtures were analysed by means of analytical RP-18-HPLC.
A volume of 10 μl of the appropriate 50 mM DMSO-d6 stock solution was diluted to 6.0 mM hydrolysis solution by addition of 73.3 μl DMSO-d6. Seven different samples including 10 μl water and 10 μl hydrolysis solution were prepared. The reaction was started by addition of 50 μl human CEM cell extract and the mixture was incubated at 37 °C for different time periods of hydrolysis. The work-up depended on the particular compound: (a) for 3a–f,l,m,p and 4a,e the reactions were stopped by addition of 150 μl MeOH. The solution was kept on ice for 5 min followed by centrifugation for 5 min (13,000 r.p.m.). The supernatants were filtered (Chromafil RC-20/15 MS, 0.2 μm) and stored in liquid nitrogen. (b) For 3g–i,k,n and 4j, the samples were directly frozen in liquid nitrogen. The solution was defrosted followed by ultrasonication for 10 min. After centrifugation for 5 min the supernatants were filtered (Chromafil AO-20/3, 0.2 μm) and stored at −196 °C. (c) For 3j the mixture was diluted with 70 μl THF (HPLC grade) and frozen in liquid nitrogen followed by defrosting, ultrasonication, centrifugation, filtration and stored as described for (b). Samples were defrosted and 50–80 μl were subjected to HPLC analysis.
Human CD4^+ T-lymphocyte CEM cells were grown in RPMI-1640-based cell culture medium to a final density of ∼3·10^6 cells ml^−1. Then, cells were centrifuged for 10 min at 1,250 r.p.m. at 4 °C, washed twice with cold PBS and the pellet was resuspended at 10^8 cells ml^−1 and sonicated (Hielscher Ultrasound Techn., 100% amplitude, three·times for 10 s) to destroy cell integrity. The resulting cell suspension was then centrifuged at 10,000 r.p.m. to remove cell debris, and the supernatant divided into aliquots before being frozen at −80 °C and used.

[5] = Cytotoxicity: inhibition of CEM cell proliferation; format: cell-based, human; conditions: human, CEM cells (CD4+ T-cells), 50% cytostatic concentration, mean±s.d., n=2–3
[6] = wild-type CEM cells, HIV-induced giant cell formation, mean±s.d., n=2–3

| EC50 (HIV-2(ROD) [1]; [6]) | EC50 (HIV-2(ROD) [2]) | t1/2(1) PLE (pig liver esterase (PLE)) | EC50 (HIV-1(IIIB)) | t1/2(1) PBS, pH=7.3 [3] | t1/2(2) PBS, pH=7.3 [3] | t1/2(1) CEM [4] | SMILES | CC50 (CD4+ T-cell (CEM)) | primer extension by HIV RT with PLE hydrolysate of the prodrug (HIV RT) | t1/2(2) PLE (pig liver esterase (PLE)) | CC50 [5] | EC50 (HIV-2(ROD) [1]; Human immunodeficiency virus 2, CCRF-CEM) | EC50 (HIV-2(ROD) [2]; Human immunodeficiency virus 2) | EC50 (HIV-1(IIIB); Human immunodeficiency virus 1, IIIB, CCRF-CEM) | time in which amount of thymine doubles (cleavage of the glycosidic bond) ([3]; long chemical hydrolysis time periods) |
| --- | --- | --- | --- | --- | --- | --- | --- | --- | --- | --- | --- | --- | --- | --- | --- |
| 0.47 ± 0.1 µM | 1.26 µM | 0.12 h | 0.36 ± 0.06 µM | 82 h | 590 h | 2.6 h | CCCCCCCCOC(=O)Oc1ccc(COP(=O)(OCc2ccc(OC(=O)OCCCCCCCC)cc2)OP(=O)(O)OP(=O)(O)OC[C@@H]2C=C[C@H](n3cc(C)c(=O)[nH]c3=O)O2)cc1 [3m, γ-Bis-(4-octyloxycarbonyloxybenzyl)-d4TTP] | 51 ± 5 µM | – | 17 h | – | – | – | – | – |
| 0.69 ± 0.21 µM | 1.26 µM | 44 h | 0.5 ± 0.14 µM | 99 h | 631 h | 3.0 h | CCCCCCCCCCCCOC(=O)Oc1ccc(COP(=O)(OCc2ccc(OC(=O)OCCCCCCCCCCCC)cc2)OP(=O)(O)OP(=O)(O)OC[C@@H]2C=C[C@H](n3cc(C)c(=O)[nH]c3=O)O2)cc1 [3n, γ-Bis-(4-dodecyloxycarbonyloxybenzyl)-d4TTP] | 41 ± 12 µM | – | – | – | – | – | – | – |
| – | – | – | – | – | – | – | Cc1cn([C@H]2C=C[C@@H](CO)O2)c(=O)[nH]c1=O [d4T, 3′-deoxy-2′,3′-didehydrothymidine, reference compound] | – | – | – | 79 ± 3 µM | 0.89 µM | 150 ± 9 µM | 0.33 ± 0.11 µM | 63 h |

| SMILES | EC50 (HIV-2(ROD) [1]; [6]) | EC50 (HIV-2(ROD) [2]) | t1/2(1) PLE (pig liver esterase (PLE)) | EC50 (HIV-1(IIIB)) | t1/2(1) PBS, pH=7.3 [3] | t1/2(2) PBS, pH=7.3 [3] | t1/2(1) CEM [4] | CC50 (CD4+ T-cell (CEM)) | primer extension by HIV RT with PLE hydrolysate of the prodrug (HIV RT) | t1/2(2) PLE (pig liver esterase (PLE)) | CC50 [5] | EC50 (HIV-2(ROD) [1]; Human immunodeficiency virus 2, CCRF-CEM) | EC50 (HIV-2(ROD) [2]; Human immunodeficiency virus 2) | EC50 (HIV-1(IIIB); Human immunodeficiency virus 1, IIIB, CCRF-CEM) | time in which amount of thymine doubles (cleavage of the glycosidic bond) ([3]; long chemical hydrolysis time periods) |
| --- | --- | --- | --- | --- | --- | --- | --- | --- | --- | --- | --- | --- | --- | --- | --- |
| CCCCCCCCC(=O)Oc1ccc(COP(=O)(OCc2ccc(OC(=O)CCCCCCCC)cc2)OP(=O)(O)OP(=O)(O)OC[C@@H]2C=C[C@H](n3cc(C)c(=O)[nH]c3=O)O2)cc1 [3e, γ-Bis-(4-nonanoyloxybenzyl)-d4TTP] | 0.62 ± 0.3 µM | 2.26 ± 1.03 µM | 0.013 h | 0.31 ± 0.01 µM | 52 h | 390 h | 2.5 h | 52 ± 1 µM | immediate DNA chain termination | 1.6 h | – | – | – | – | – |
